Each block holds one molecule with its values, some of them ahead of it. Calls of active or inactive are those of the source.
Key:
[1] = HEK-293T cell viability reduction – luminescence, B-cell screen hits, cytotoxicity control for BCR NF-kB inhibitor project, dose response (AID 489021); assay type: functional, cell-based;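 further: HEK-293T cells carrying an NF-kB luciferase reporter; cells exposed to compound for about 14 hours before viability readout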
INS1 = experiment: INS-1E survival protection against cytokine death – cell-based, luminescence, retest, dose response (AID 449756); assay type: functional; settings: Rattus norvegicus;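 further: cell death triggered by IL-1 beta plus TNF-alpha plus IFN-gamma mixture; protective hits raise ATP signal compared with cytokine alone wells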
[2] = biological target: G-protein coupled receptor 55 (Homo sapiens, UniProt Q9Y2T6); experiment: selective activators of receptor GPR55 – imaging, U2OS cells, beta-arrestin-GFP redistribution, primary screen (AID 1961); assay type: functional
[3] = biological target: T1, High affinity choline transporter 1 (Homo sapiens, UniProt Q9GZV3); experiment: human choline transporter blockers, potency – cell-based, 5-point CRC, membrane potential dye, dose response (AID 504840); assay type: functional
T1 sequence (Q9GZV3 whole entry): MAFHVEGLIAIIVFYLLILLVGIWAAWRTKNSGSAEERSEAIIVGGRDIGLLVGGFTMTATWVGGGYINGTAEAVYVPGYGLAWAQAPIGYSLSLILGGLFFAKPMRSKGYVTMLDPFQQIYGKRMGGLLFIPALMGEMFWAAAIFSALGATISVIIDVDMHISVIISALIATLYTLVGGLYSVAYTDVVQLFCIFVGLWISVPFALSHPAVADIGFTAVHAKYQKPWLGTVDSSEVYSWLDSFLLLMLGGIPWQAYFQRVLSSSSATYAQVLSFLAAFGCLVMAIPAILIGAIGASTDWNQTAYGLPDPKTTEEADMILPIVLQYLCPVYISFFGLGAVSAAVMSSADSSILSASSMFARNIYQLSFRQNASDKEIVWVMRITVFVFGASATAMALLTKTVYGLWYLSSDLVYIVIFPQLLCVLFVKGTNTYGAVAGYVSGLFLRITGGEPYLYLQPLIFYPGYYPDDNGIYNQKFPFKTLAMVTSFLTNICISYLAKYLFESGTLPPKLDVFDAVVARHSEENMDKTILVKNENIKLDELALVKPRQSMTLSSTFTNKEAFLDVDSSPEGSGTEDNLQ

Phospholipase A2 = Phospholipase A2 (Homo sapiens, UniProt P04054); assay type: functional;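 further: confirmatory dose-response counterscreen on phospholipase A2, testing hits that came from an ultra-high-throughput screen for ATG4B inhibitors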
[4] = Trypanosoma cruzi growth suppression in host cells – NIH3T3 host cells, beta-gal luminescence, confirmation (AID 2044); assay type: functional, cell-based;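 further: intracellular parasites grown in NIH/3T3 mouse fibroblasts as host cells; luminescent beta-galactosidase reporter signal from transgenic T. cruzi replicating inside host cells; inhibitors lower the luminescence signal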
[5] = NIH3T3 cell viability loss – ATP luminescence, mouse fibroblasts, counter-screen, dose response (AID 2010); assay type: functional, cell-based;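 further: cells exposed to compound for about 90 hours before reading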
Cysteine protease ATG4B = biological target: T2, Cysteine protease ATG4B (Homo sapiens, UniProt Q9Y4P1); assay type: functional;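 further: Fluorescence-based dose-response confirmation assay measuring inhibition of ATG4B activity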
T2 sequence (Q9Y4P1 whole entry): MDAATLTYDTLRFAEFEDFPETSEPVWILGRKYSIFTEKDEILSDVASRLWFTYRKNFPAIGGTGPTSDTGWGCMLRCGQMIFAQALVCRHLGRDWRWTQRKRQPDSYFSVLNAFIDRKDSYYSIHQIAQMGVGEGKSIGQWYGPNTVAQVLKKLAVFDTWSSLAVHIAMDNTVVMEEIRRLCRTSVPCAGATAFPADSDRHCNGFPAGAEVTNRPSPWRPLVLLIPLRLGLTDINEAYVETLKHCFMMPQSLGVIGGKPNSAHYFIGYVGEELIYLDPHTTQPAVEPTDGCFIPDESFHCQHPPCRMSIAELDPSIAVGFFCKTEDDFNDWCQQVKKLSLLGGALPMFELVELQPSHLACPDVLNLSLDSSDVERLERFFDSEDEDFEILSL

Aminopeptidase N = biological target: T3, Aminopeptidase N (Plasmodium falciparum FcB1/Columbia, UniProt O96935); experiment: malaria alanyl aminopeptidase activity blockers – biochemical, fluorogenic H-Leu-NHMec substrate, 1536-well (AID 1445); parameters: species or system Plasmodium falciparum 3D7, 3D7
T3 sequence (O96935 whole entry): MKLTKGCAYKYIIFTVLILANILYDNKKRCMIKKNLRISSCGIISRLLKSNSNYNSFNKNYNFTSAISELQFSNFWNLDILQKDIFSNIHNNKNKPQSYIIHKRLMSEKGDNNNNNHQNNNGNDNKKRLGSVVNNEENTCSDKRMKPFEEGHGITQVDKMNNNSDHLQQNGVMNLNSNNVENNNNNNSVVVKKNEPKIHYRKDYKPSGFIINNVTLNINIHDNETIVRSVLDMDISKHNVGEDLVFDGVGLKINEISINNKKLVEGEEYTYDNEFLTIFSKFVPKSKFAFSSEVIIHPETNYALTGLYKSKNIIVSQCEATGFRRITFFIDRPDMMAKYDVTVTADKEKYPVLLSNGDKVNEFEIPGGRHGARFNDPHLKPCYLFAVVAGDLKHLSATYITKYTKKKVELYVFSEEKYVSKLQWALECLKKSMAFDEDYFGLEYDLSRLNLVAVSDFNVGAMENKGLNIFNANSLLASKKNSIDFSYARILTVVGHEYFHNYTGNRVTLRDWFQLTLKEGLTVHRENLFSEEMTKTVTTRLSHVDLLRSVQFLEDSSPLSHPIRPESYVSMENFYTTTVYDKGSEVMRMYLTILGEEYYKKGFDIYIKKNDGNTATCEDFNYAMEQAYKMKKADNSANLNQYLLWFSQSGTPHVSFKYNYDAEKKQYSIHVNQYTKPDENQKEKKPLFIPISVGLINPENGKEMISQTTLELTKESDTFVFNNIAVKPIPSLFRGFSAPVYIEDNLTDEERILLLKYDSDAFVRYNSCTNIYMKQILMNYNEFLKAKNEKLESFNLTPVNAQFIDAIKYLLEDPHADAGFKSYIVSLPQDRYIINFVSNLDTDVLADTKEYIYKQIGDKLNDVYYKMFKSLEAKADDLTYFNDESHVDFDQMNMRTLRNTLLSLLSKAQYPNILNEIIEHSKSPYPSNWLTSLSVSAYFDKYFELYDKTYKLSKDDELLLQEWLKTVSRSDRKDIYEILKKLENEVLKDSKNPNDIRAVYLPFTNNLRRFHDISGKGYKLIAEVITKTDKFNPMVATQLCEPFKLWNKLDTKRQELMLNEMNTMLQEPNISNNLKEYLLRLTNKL

Cytochrome P450 2D6 = Cytochrome P450 2D6 (Homo sapiens, UniProt P10635);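 further: CYP2D6 member of a cytochrome P450 panel assay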
Sequence of Cytochrome P450 2D6 (P10635 whole entry): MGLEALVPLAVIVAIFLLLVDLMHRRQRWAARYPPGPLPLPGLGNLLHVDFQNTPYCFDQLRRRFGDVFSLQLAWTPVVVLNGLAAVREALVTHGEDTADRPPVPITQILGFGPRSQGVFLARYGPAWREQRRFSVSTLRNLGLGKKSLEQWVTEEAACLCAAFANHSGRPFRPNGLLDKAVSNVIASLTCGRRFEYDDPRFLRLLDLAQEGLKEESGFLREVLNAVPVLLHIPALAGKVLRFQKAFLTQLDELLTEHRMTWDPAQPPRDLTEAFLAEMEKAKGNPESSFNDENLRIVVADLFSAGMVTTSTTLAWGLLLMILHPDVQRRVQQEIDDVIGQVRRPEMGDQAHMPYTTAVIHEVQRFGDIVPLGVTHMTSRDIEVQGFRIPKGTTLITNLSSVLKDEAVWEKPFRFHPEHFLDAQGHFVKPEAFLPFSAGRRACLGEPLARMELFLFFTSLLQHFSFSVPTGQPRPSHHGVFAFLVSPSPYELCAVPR

Sequence of G-protein coupled receptor 55 (Q9Y2T6 whole entry): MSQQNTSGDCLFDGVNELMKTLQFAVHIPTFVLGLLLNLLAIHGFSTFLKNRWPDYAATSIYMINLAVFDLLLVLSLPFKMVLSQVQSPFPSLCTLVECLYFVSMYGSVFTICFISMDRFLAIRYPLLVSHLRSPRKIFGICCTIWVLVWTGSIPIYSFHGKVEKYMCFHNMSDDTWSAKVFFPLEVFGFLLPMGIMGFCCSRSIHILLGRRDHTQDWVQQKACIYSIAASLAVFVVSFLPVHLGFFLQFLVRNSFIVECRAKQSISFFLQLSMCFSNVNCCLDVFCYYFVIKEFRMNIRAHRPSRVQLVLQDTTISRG
Sequence of Phospholipase A2 (P04054 whole entry): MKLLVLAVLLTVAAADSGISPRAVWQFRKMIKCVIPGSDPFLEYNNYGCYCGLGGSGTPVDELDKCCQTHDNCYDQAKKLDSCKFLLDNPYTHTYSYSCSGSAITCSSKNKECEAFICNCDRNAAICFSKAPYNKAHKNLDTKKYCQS

SMILES: c1ccc(CCNc2ncnc3ccccc23)cc1
IC50 [1]: > 80 µM (inactive)
AC50 (INS1): 1.05 µM (active)

SMILES: CCOC(=O)c1cnc2c(C(F)(F)F)cccc2c1N1CCOCC1
IC50 [3]: 13.5 µM (active)

SMILES: O=S(=O)(c1ccc(F)cc1)c1nc(-c2ccccc2F)oc1N1CCCCC1
IC50 (Phospholipase A2): 12.3 µM (active)
EC50 [4]: 1.87 µM (active)
EC50 [5]: > 30 µM (not active)
IC50 (Cysteine protease ATG4B): 19.1 µM (active)

SMILES: CC1CCN(C(=O)CCCOc2cc(=O)n(C)c3ccccc23)CC1
IC50 [1]: > 80 µM (inactive)

SMILES: O=S(=O)(Nc1nc2cc3c(cc2nc1Cl)OCCO3)c1ccccc1
IC50 (Aminopeptidase N): 66.8 µM (active)

SMILES: CCN1C(=O)[C@H]2[C@@H]3[C@H](O)C=CC(=O)[C@H]3CC[C@H]2C1=O
AC50 (Cytochrome P450 2D6): inconclusive

Next, values leading:

EC50 [2]: 6.33 µM (active)
SMILES: COc1ccccc1N1CCN(C(c2cccs2)c2nnnn2C2CCCC2)CC1 (stereo not drawn)

AC50 (Cytochrome P450 2D6): inconclusive
SMILES: COc1ccc(C(C(=O)NC2CCCCC2)N(C(=O)c2sc(C)nc2C)c2ccc(C(C)=O)cc2)cc1 (stereo not drawn)

AC50 (Cytochrome P450 2D6): inconclusive
SMILES: COc1cc(C(=O)NC(=S)Nc2ccc3oc(=O)ccc3c2)cc(OC)c1OC
